Test results as given in patent US20230114728A1 (Venatorx Pharmaceuticals, Inc., priority 2019, published 2023).
Values after ≈ are worked out from the molar mass of the structure shown.

Experiments:
Type in all cases: cell-based
[1] = tested on: K. pneumoniae 848844 producing SHV-11 and KPC-2; assay: Broth microdilution MIC in CAMHB; details: Klebsiella pneumoniae, read-out: Minimum Inhibitory Concentration, K. pneumoniae 848844
Summary of the method: (§1)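 MIC, read by eye, is the lowest compound concentration giving no bacterial growth after 16-20 h at 37° C. Test compounds are serially diluted 2-fold in CAMHB and seeded with 2-8×10^5 CFU/mL of bacteria taken from a 3-5 h shaking culture, following CLSI methods.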

[2] = tested on: P. aeruginosa (ΔmexAB-oprM); assay: Broth microdilution MIC in CAMHB; details: Pseudomonas aeruginosa, read-out: Minimum Inhibitory Concentration, P. aeruginosa ΔmexAB-OprM
Summary of the method: as §1

A. baumannii ATCC 19606 = assay: Broth microdilution MIC in CAMHB; details: Acinetobacter baumannii, ATCC19606; MHB; read-out: Minimum Inhibitory Concentration, A. baumannii ATCC 19606
Summary of the method: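 Colonies from cation-adjusted Mueller Hinton agar are grown in broth (3-5 h, 37° C), adjusted by OD600, and added at 2-8×10^5 CFU/mL to 2-fold compound dilutions. After 16-20 h at 37° C, the lowest concentration without growth is taken as MIC.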

[3] = tested on: K. pneumoniae UMM producing SHV-5 and KPC-2; assay: Broth microdilution MIC in CAMHB; details: Klebsiella pneumoniae, read-out: Minimum Inhibitory Concentration, K. pneumoniae UMM
Summary of the method: as §1

E. coli AG100 = assay: Broth microdilution MIC in CAMHB; details: Escherichia coli; E. coli AG100 (wild-type parent); MHB; read-out: Minimum Inhibitory Concentration, E. coli AG100
Summary of the method: as §1

E. coli D22 = assay: Broth microdilution MIC in CAMHB; details: Escherichia coli; E. coli D22 (hyper-permeable); MHB; read-out: Minimum Inhibitory Concentration, E. coli D22
Summary of the method: as §1

E. coli AG100A = assay: Broth microdilution MIC in CAMHB; details: Escherichia coli, read-out: Minimum Inhibitory Concentration, E. coli AG100A
Summary of the method: as §1

E. coli 901C = assay: Broth microdilution MIC in CAMHB; details: Escherichia coli; E. coli 901C (hyper-permeable); MHB; read-out: Minimum Inhibitory Concentration, E. coli 901C
Summary of the method: as §1

E. coli ATCC 25922 = assay: Broth microdilution MIC in CAMHB; details: Escherichia coli, ATCC25922; E. coli ATCC 25922; MHB; read-out: Minimum Inhibitory Concentration, E. coli 25922
Summary of the method: as §1

P. aeruginosa ATCC 27853 = assay: Broth microdilution MIC in CAMHB; details: Pseudomonas aeruginosa, ATCC27853; MHB; read-out: Minimum Inhibitory Concentration, P. aeruginosa ATCC 27853
Summary of the method: as §1

P. aeruginosa ATCC 35151 = assay: Broth microdilution MIC in CAMHB; details: Pseudomonas aeruginosa, ATCC35151; MHB; hyper-permeable strain; read-out: Minimum Inhibitory Concentration, P. aeruginosa ATCC 35151
Summary of the method: as §1

[4] = tested on: K. pneumoniae SI-117 producing VIM-1; assay: Broth microdilution MIC in CAMHB; details: Klebsiella pneumoniae, read-out: Minimum Inhibitory Concentration, K. pneumoniae SI-117
Summary of the method: as §1

N. gonorrhoeae H041 = assay: Liquid broth MIC in Fastidious broth; details: Neisseria gonorrhoeae, H041, read-out: Minimum Inhibitory Concentration, N. gonorrhoeae H041
Summary of the method: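 Broth microdilution against gonococcal strains expressing mosaic PBP2, starting inoculum 5×10^5 CFU/mL in Fastidious broth. Incubation runs ~24 h at 36 °C under 5% CO2, with MIC scored visually at <10% of full growth.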

SMILES | MIC [1] [µg/mL] | MIC [2] [µg/mL] | MIC (A. baumannii ATCC 19606) [µg/mL] | MIC [3] [µg/mL] | MIC (E. coli AG100) [µg/mL] | MIC (E. coli D22) [µg/mL] | MIC (E. coli AG100A) [µg/mL] | MIC (E. coli 901C) [µg/mL] | MIC (E. coli ATCC 25922) [µg/mL] | MIC (P. aeruginosa ATCC 27853) [µg/mL] | MIC (P. aeruginosa ATCC 35151) [µg/mL] | MIC [4] [µg/mL] | MIC (N. gonorrhoeae H041) [µg/mL]
NCCN1CCN(C(=O)N[C@@H](C(=O)N[C@H]2Cc3cccc(C(=O)O)c3OB2O)c2cc(F)c(O)c(F)c2F)C(=O)C1=O (single isomer, unassigned) [Example 168] | 32 to 64 (≈ 53.9 to 108 µM) | 2 to 4 (≈ 3.37 to 6.74 µM) | > 128 | 8 to 16 (≈ 13.5 to 27 µM) | 8 to 16 (≈ 13.5 to 27 µM) | 0.5 to 1 (≈ 0.843 to 1.69 µM) | 0.5 to 1 (≈ 0.843 to 1.69 µM) | < 0.25 | 8 to 16 (≈ 13.5 to 27 µM) | 32 to 64 (≈ 53.9 to 108 µM) | < 0.25 | 32 to 64 (≈ 53.9 to 108 µM) | > 64
NCCN1CCN(C(=O)N[C@H](C(=O)N[C@H]2Cc3cccc(C(=O)O)c3OB2O)c2cc(F)c(O)c(F)c2)C(=O)C1=O (single isomer, unassigned) [Example 158] | > 128 | 32 to 64 (≈ 55.6 to 111 µM) | > 128 | > 128 | > 128 | 8 to 16 (≈ 13.9 to 27.8 µM) | 8 to 16 (≈ 13.9 to 27.8 µM) | 2 to 4 (≈ 3.48 to 6.95 µM) | > 128 | > 128 | 0.5 to 1 (≈ 0.869 to 1.74 µM) | > 128 | > 64
CCN1CCN(C(=O)NC(C(=O)N[C@H]2Cc3cccc(C(=O)O)c3OB2O)c2cccc(CN)c2)C(=O)C1=O (stereo partly drawn) [Example 108, (3R)-3-(2-(3-(aminomethyl)phenyl)-2-(4-ethyl-2,3-dioxopiperazine-1-carboxamido)acetamido)-2-hydroxy-3,4-dihydro-2H-benzo[e][1,2]oxaborinine-8-carboxylic acid] | > 128 | 32 to 64 (≈ 59.6 to 119 µM) | > 128 | 32 to 64 (≈ 59.6 to 119 µM) | 32 to 64 (≈ 59.6 to 119 µM) | 8 to 16 (≈ 14.9 to 29.8 µM) | 2 to 4 (≈ 3.72 to 7.44 µM) | 2 to 4 (≈ 3.72 to 7.44 µM) | 8 to 16 (≈ 14.9 to 29.8 µM) | > 128 | 8 to 16 (≈ 14.9 to 29.8 µM) | 32 to 64 (≈ 59.6 to 119 µM) | > 64
CCN1CCN(C(=O)NC(C(=O)N[C@H]2Cc3cccc(C(=O)O)c3OB2O)c2cc(Cl)c(O)cc2F)C(=O)C1=O (stereo partly drawn) [Example 101, (3R)-3-(2-(5-chloro-2-fluoro-4-hydroxyphenyl)-2-(4-ethyl-2,3-dioxopiperazine-1-carboxamido)acetamido)-2-hydroxy-3,4-dihydro-2H-benzo[e][1,2]oxaborinine-8-carboxylic acid] | > 128 | 8 to 16 (≈ 13.9 to 27.7 µM) | > 128 | 32 to 64 (≈ 55.5 to 111 µM) | 32 to 64 (≈ 55.5 to 111 µM) | 2 to 4 (≈ 3.47 to 6.94 µM) | 2 to 4 (≈ 3.47 to 6.94 µM) | < 0.25 | 32 to 64 (≈ 55.5 to 111 µM) | > 128 | 0.5 to 1 (≈ 0.867 to 1.73 µM) | > 128 | 16 to 32 (≈ 27.7 to 55.5 µM)
CCN1CCN(C(=O)N[C@H](C(=O)N[C@H]2Cc3cccc(C(=O)O)c3OB2O)c2cc(F)c(C(=O)O)cc2Cl)C(=O)C1=O (single isomer, unassigned) [Example 149] | > 128 | > 128 | > 128 | > 128 | > 128 | 8 to 16 (≈ 13.2 to 26.5 µM) | 32 to 64 (≈ 52.9 to 106 µM) | 0.5 to 1 (≈ 0.827 to 1.65 µM) | > 128 | > 128 | 2 to 4 (≈ 3.31 to 6.61 µM) | > 128 | > 64
CCN1CCN(C(=O)NC(C(=O)N[C@H]2Cc3cccc(C(=O)O)c3OB2O)c2c(Cl)cc(C(=O)O)cc2Cl)C(=O)C1=O (stereo partly drawn) [Example 150, (3R)-3-(2-(4-carboxy-2,6-dichlorophenyl)-2-(4-ethyl-2,3-dioxopiperazine-1-carboxamido)acetamido)-2-hydroxy-3,4-dihydro-2H-benzo[e][1,2]oxaborinine-8-carboxylic acid] | > 128 | > 128 | > 128 | > 128 | > 128 | 2 to 4 (≈ 3.22 to 6.44 µM) | 32 to 64 (≈ 51.5 to 103 µM) | < 0.25 | > 128 | > 128 | 0.5 to 1 (≈ 0.805 to 1.61 µM) | > 128 | > 64
CCN1CCN(C(=O)NC(C(=O)N[C@H]2Cc3cccc(C(=O)O)c3OB2O)c2cc(F)c(C(=O)O)c(F)c2)C(=O)C1=O (stereo partly drawn) [Example 141, (3R)-3-(2-(4-carboxy-3,5-difluorophenyl)-2-(4-ethyl-2,3-dioxopiperazine-1-carboxamido)acetamido)-2-hydroxy-3,4-dihydro-2H-benzo[e][1,2]oxaborinine-8-carboxylic acid] | > 128 | 32 to 64 (≈ 54.4 to 109 µM) | > 128 | 32 to 64 (≈ 54.4 to 109 µM) | 32 to 64 (≈ 54.4 to 109 µM) | 2 to 4 (≈ 3.4 to 6.8 µM) | 2 to 4 (≈ 3.4 to 6.8 µM) | < 0.25 | 32 to 64 (≈ 54.4 to 109 µM) | > 128 | < 0.25 | > 128 | 4 to 8 (≈ 6.8 to 13.6 µM)
